The values below come from patent publication US11246320B2, “Casein glycomacropeptide (CGMP) oligomers” (Chr. Hansen A/S, priority 2017, dated 2022).

Series [1] can be described thus: Stability of curcumin, free versus encapsulated (absorbance at 420 nm). The series is classed as physicochemical. As for the experimental part:
To prepare a stock solution of curcumin, 100 mg of commercial turmeric powder was suspended in 10 mL of ethanol and vortex and kept for inversion for 2 hours. The tube was closed and covered with aluminum foil to prevent the degradation of curcumin by oxidation and UV light. Next, the suspension was centrifuged at 13200 rpm for 30 minutes to separate the insoluble particles form the ethanol solubilized curcumin. The supernatant was carefully collected and this was used as a stock solution of curcumin in ethanol. The stock solution was adjusted with ethanol so that a 100 x dilution of this stock solution in MQ-Water gave an absorbance of 2±0.1 at 420 nm, when measured immediately after the dilution. If stored at ambient conditions, the absorbance decreases rapidly due to degradation of curcumin by oxidation and light.
To load curcumin 10 μL of curcumin stock solution was added to 990 μL of buffer (±lactase) which was used for encapsulation. The loaded curcumin was not removed by repeated washing and this indicated good encapsulation and stabilization. The microcapsule suspension with encapsulated curcumin appeared yellow.

The conditions of series [2]: cited from earlier work; for pKsp: comparison values.

On to `COc1cc(/C=C/C(=O)CC(=O)/C=C/c2ccc(O)c(OC)c2)ccc1O` [curcumin], for which the increase of half-life in series [1] (encapsulated in CaP particles stabilized by oligo-CGMP or in liposomes, versus storage at ambient conditions) is on record as 5-10 times. Moreover, the “stability as indicated by half and quarter-life” value in series [1] (encapsulated in oligo-CGMP micelles) is listed as “significantly increased”. With `O=C([O-])[O-].[Ca+2]` [calcium carbonate], the pKsp in series [2] is given as 8.47.

On to `O=P([O-])([O-])[O-].O=P([O-])([O-])[O-].[Ca+2].[Ca+2].[Ca+2]` [CaP, Ca3(PO4)2], for which the Ksp in series [2] (25° C.) is recorded as 2.07×10^−33.

For the compound `[Ca+2].[OH-].[OH-]` [calcium hydroxide], the pKsp in series [2] is given as 5.3.
